The values below come from PMC3345137 (Toxicology and Applied Pharmacology, 2011).

The target of test [1] is T1, Human recombinant MGL (Monoacylglycerol lipase) (Homo sapiens, UniProt Q99685).
T1 sequence (Q99685 1-303): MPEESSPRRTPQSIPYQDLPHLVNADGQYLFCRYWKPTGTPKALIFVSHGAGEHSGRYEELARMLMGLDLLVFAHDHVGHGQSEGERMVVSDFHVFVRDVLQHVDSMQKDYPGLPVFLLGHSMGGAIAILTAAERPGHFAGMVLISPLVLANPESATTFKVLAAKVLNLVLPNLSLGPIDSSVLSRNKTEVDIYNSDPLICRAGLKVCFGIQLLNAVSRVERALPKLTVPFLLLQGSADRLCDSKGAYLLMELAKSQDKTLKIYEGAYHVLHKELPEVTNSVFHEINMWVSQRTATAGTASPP
In kind it is biochemical. The conditions noted are these: Michaelis constant of substrate pNPV with MGL, no inhibitor.

Test [2] deals with T2, Human recombinant CES2 (Carboxylesterase 2) (Homo sapiens, UniProt O00748).
T2 sequence (O00748 27-559): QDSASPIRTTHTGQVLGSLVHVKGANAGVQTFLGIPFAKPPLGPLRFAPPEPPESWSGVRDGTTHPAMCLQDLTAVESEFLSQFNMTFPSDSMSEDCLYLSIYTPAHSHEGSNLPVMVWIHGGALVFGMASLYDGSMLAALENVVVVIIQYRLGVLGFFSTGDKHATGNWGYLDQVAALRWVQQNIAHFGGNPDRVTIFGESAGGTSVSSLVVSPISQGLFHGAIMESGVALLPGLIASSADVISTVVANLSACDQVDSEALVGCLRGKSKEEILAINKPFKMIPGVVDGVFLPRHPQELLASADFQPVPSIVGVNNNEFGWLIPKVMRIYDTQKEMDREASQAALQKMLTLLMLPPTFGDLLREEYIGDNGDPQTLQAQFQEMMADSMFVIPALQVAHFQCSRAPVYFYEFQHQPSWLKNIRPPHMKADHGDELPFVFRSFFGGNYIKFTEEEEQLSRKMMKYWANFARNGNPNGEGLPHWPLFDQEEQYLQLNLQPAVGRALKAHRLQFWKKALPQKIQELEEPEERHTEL
In kind it is biochemical.

Test [3] concerns the target T3, Human recombinant CES1 (Carboxylesterase 1) (Homo sapiens, UniProt P23141).
T3 sequence (P23141 18-567): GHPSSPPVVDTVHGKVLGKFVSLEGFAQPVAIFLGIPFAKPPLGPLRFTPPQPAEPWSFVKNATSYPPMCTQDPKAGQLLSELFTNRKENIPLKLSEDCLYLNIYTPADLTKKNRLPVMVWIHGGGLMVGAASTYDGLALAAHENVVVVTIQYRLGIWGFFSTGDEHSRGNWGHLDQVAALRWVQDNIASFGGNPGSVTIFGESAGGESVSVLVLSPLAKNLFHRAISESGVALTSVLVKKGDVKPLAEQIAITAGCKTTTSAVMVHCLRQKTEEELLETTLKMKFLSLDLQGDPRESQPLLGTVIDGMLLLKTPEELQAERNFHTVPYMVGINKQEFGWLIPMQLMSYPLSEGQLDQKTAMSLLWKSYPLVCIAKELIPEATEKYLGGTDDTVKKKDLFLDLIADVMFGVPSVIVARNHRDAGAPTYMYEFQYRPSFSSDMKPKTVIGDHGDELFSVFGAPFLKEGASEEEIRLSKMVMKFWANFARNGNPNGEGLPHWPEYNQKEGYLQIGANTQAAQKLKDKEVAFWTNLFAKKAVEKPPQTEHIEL
In kind it is biochemical. As to conditions: Michaelis constant of substrate pNPV with CES1, no inhibitor.

The next test addresses T4, Rat hydrolase A (Rattus norvegicus, UniProt P16303).
T4 sequence (P16303 19-565): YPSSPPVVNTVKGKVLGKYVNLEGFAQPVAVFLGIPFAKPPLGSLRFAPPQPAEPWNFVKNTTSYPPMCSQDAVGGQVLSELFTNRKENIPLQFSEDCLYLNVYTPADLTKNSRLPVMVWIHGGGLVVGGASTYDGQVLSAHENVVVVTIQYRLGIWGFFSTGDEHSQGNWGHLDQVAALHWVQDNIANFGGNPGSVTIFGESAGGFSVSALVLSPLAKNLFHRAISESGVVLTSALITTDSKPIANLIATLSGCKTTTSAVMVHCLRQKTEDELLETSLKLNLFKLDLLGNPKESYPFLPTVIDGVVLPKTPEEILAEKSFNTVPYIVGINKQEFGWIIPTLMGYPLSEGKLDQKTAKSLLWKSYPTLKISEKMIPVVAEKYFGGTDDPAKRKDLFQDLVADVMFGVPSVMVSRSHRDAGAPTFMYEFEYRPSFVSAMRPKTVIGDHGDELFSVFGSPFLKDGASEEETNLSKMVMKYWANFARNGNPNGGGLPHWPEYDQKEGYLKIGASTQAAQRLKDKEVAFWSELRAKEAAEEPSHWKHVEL
In kind it is biochemical.

Test [4] concerns recombinant human acetylcholinesterase. As to conditions: experimental, ref Amitai et al., 1998; cited from earlier work.
A further test has as its system butyrylcholinesterase. The conditions noted are these: purified butyrylcholinesterase; ref Shenouda et al., 2009; cited from earlier work.
In test [5] the target is porcine liver carboxylesterase. The conditions noted are these: 25°C, ref Quistad and Casida, 2000; cited from earlier work.
In test [6] the test system is recombinant human butyrylcholinesterase. The conditions noted are these: experimental, ref Amitai et al., 1998; cited from earlier work.

SMILES strings stand for the structures.

On to `CCCCC(=O)Oc1ccc([N+](=O)[O-])cc1` [pNPV, para-Nitrophenyl valerate], for which the Km stood at 158 ± 37 µM in test [1]; 90 ± 12 µM in test [2] (Michaelis constant of substrate pNPV with CES2, no inhibitor); 136 ± 40 µM in test [3]; 32.6 µM at Rat hydrolase A (Michaelis constant of substrate pNPV with rat hydrolase A, no inhibitor).

With `CCOP(=O)(OCC)Oc1nc(Cl)c(Cl)cc1Cl` [Chlorpyrifos Oxon, Chlorpyrifos oxon], the bimolecular rate constant in test [4] is 167000 M⁻¹ s⁻¹; with butyrylcholinesterase it was 8.47e+08 M⁻¹ s⁻¹; in test [6], 2.78e+07 M⁻¹ s⁻¹; at Rat hydrolase A (rat hydrolase A purified from rat liver), 3.3e+06 M⁻¹ s⁻¹. Besides, in test [5], the IC50 was 2 nM.

On to `CCOP(=O)(OCC)Oc1ccc([N+](=O)[O-])cc1` [Paraoxon], for which the “true bimolecular rate constant” value in test [2] (CES2, single representative experiment, calculated with Equation (4)) is 29000 M⁻¹ s⁻¹. Besides, in test [2] (CES2, single representative experiment, pNPV 500 µM, 37°C), the “apparent bimolecular rate constant (ki’= kinact/KI’)” value came to 4400 M⁻¹ s⁻¹. The IC50 in test [5] was 3 nM.

As usually defined, the Km is the substrate concentration at which the rate is half of its maximum. A word on the IC50: it is the concentration needed to halve the response being measured.
